Patent publication US6426229B1, “Chelating agent and detergent comprising the same” (Mitsubishi Rayon Co., Ltd., priority 1995, dated 2002)

test: Biodegradability, 301C Modified MITI Test (1) (OECD guideline); conditions: not given

Question: For `CN(CC(=O)O)CC(=O)O` [MIDA, N-methyliminodiacetic acid], which “biodegradability in 301C Modified MITI Test” value (“biodegradability” for short) is on record?
Answer: completely decomposed to inorganic materials in a short time

Question: Which “biodegradability” value does the source give for `O=C(O)CN[C@@H](CC(=O)O)C(=O)O` [S-ASMA, (S)-aspartic acid-N-monoacetic acid] here?
Answer: completely converted to inorganic materials in a short time

Question: Which “biodegradability” value does the source give for `O=C(O)CCN[C@@H](CC(=O)O)C(=O)O` [S-ASMP, (S)-aspartic acid-N-monopropionic acid] here?
Answer: completely converted to inorganic materials in a short time

test: not given; conditions: reported value; cited from earlier work

Question: For `CN(CC(=O)O)CC(=O)O` [MIDA, N-methyliminodiacetic acid], which “chelate stability constant for calcium” value is on record?
Answer: 3.7

Question: For `O=C(O)C[C@@H](C(=O)O)N(CC(=O)O)CC(=O)O` [S-ASDA, (S)-aspartic acid-N,N-diacetic acid], which “chelate stability constant for calcium” value is on record?
Answer: 5.8

Question: For `O=C(O)CN(CCS(=O)(=O)O)CC(=O)O` [TUDA, taurine-N,N-diacetic acid], which “chelate stability constant for calcium” value is on record?
Answer: 4.2
